According to publication PMC3433420 (PLoS ONE, 2012):
Residues, ends and D or L forms follow the SMILES beside them.

Experiments:
[1] = target: T1, YES1 SH2 domain (Homo sapiens, UniProt P07947); experiment: FP saturation binding assay; conditions: high-confidence ErbB interactions
T1 construct: 6X His; thioredoxin; made in house; host or cells: BL21(DE3)pLysS E. coli
Method in brief: (§1)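 Rhodamine-labeled peptides (10 nM final) were titrated with 12 SH2 domain concentrations (0.002–10 µM) in 20 mM HEPES, 100 mM KCl, 0.1% Tween-20, 5 mM DTT, pH 7.8. After 20 min at room temperature in the dark, FP (ex 530/em 555 nm) was read. KDs came from nonlinear least-squares fits.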

[2] = target: T2, PIK3R1-NC tandem SH2 domains (Homo sapiens, UniProt P27986); experiment: FP saturation binding assay; conditions: protein PIK3R1-NC; FP, high-confidence ErbB interactions; mean of replicate hits
T2 construct: the tandem protein was included in our analysis with all internal amino acids linking the domains; 6X His; thioredoxin; made in house; host or cells: E. coli BL21(DE3)pLysS
Method in brief: as §1

[3] = target: T3, PTK6 SH2 domain (Homo sapiens, UniProt Q13882); experiment: FP saturation binding assay; conditions: protein PTK6; high-confidence ErbB interactions; mean of replicate hits
T3 construct: from the PTK6 SH2 domain; 6X His; thioredoxin; made in house; host or cells: E. coli BL21(DE3)pLysS
Method in brief: as §1

[4] = target: T4, PIK3R3-N SH2 domain (Homo sapiens, UniProt Q92569); experiment: FP saturation binding assay; conditions: protein PIK3R3-N; FP, high-confidence ErbB interactions; mean of replicate hits
T4 construct: 6X His; thioredoxin; made in house; host or cells: E. coli BL21(DE3)pLysS
Method in brief: as §1

[5] = target: T5, PIK3R3-NC tandem SH2 domains (Homo sapiens, UniProt Q92569); experiment: FP saturation binding assay; conditions: high-confidence ErbB interactions
T5 construct: the tandem protein was included in our analysis with all internal amino acids linking the domains; 6X His; thioredoxin; made in house; host or cells: E. coli BL21(DE3)pLysS
Method in brief: as §1

[6] = target: PIK3R2-NC tandem SH2 domains (Homo sapiens, UniProt O00459); experiment: FP saturation binding assay
[7] = target: GRB7 SH2 domain (Homo sapiens, UniProt Q14451); experiment: FP saturation binding assay; conditions: Mean KD (μM), protein GRB7; FP, high-confidence ErbB interactions; mean of replicate hits
[8] = target: T6, PLCG1-C SH2 domain (Homo sapiens, UniProt P19174); experiment: biochemical; type: binding; conditions: protein PLCG1-C; high-confidence ErbB interactions; mean of replicate hits
T6 construct: The 6X His-tagged SH2 domain proteins used in the assay, PLCG1-C, SHC4, VAV2; thioredoxin; made in house; host or cells: E. coli BL21(DE3)pLysS
T6 sequence (P19174 668-756 limits assumed): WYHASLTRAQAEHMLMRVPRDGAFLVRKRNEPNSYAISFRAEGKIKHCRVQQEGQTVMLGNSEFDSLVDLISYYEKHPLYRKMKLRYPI

[9] = target: T7, PIK3R1-N SH2 domain (Homo sapiens, UniProt P27986); experiment: biochemical; type: binding; conditions: protein PIK3R1-N; FP, high-confidence ErbB interactions; mean of replicate hits
T7 construct: thioredoxin; made in house; host or cells: E. coli BL21(DE3)pLysS

[10] = target: T8, RASA1-N SH2 domain (Homo sapiens, UniProt P20936); experiment: FP saturation binding assay
T8 sequence (P20936 181-272 limits assumed): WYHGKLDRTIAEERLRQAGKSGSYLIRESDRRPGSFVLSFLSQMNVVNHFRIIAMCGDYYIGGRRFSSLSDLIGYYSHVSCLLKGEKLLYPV

[11] = target: T9, TNS1 SH2 domain (Homo sapiens, UniProt Q9HBL0); experiment: FP saturation binding assay; conditions: Tensin family SH2 domains
T9 sequence (Q9HBL0 1567-1676 limits assumed): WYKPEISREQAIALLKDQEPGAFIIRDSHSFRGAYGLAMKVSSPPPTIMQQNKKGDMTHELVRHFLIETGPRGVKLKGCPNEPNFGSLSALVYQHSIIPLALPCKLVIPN

[12] = system: TENC1 SH2 domain; experiment: FP saturation binding assay; conditions: Tensin family SH2 domains
[13] = target: T10, TNS3 SH2 domain (Homo sapiens, UniProt Q68CZ2); experiment: FP saturation binding assay; conditions: FP saturation assay; Tensin family SH2 domains
T10 sequence (Q68CZ2 1172-1282 limits assumed): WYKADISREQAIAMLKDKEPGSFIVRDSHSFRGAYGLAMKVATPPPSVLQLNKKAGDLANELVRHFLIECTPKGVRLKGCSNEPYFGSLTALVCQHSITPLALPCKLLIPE

[14] = target: T11, LCK SH2 domain (Homo sapiens, UniProt P06239); experiment: FP saturation binding assay; conditions: Protein LCK; FP saturation binding, high-confidence ErbB interactions; mean over replicate hits
T11 construct: 93 SH2 and 2 PTB domain-containing constructs; 6X His; thioredoxin; made in house; host or cells: E. coli BL21(DE3)pLysS
Method in brief: as §1

[15] = target: T12, RASA1-NC tandem SH2 domains (Homo sapiens, UniProt P20936); experiment: FP saturation binding assay; conditions: Protein RASA1-NC; FP saturation binding, high-confidence ErbB interactions; mean over replicate hits
T12 construct: the tandem protein was included in our analysis with all internal amino acids linking the domains; 6X His; thioredoxin; made in house; host or cells: E. coli BL21(DE3)pLysS
T12 sequence (P20936 181-441 limits assumed): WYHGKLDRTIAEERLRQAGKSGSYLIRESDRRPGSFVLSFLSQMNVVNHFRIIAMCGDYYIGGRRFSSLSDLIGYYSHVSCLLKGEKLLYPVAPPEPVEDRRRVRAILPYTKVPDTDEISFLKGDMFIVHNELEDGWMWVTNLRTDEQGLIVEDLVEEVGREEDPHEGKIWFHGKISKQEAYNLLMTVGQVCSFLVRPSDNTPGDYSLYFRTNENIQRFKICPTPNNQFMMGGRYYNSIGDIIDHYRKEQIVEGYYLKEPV
Method in brief: as §1

[16] = target: T13, PTPN11-N SH2 domain (Homo sapiens, UniProt Q06124); experiment: FP saturation binding assay
T13 sequence (Q06124 6-102 limits assumed): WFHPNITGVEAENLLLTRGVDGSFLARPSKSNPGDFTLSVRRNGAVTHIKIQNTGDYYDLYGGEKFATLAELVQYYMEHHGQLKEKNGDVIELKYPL

[17] = target: T14, SH2D1B SH2 domain (Homo sapiens, UniProt O14796); experiment: FP saturation binding assay
T14 sequence (O14796 5-101 limits assumed): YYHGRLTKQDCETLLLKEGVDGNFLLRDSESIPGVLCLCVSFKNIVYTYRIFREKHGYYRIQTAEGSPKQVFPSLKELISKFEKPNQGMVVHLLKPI

[18] = target: PIK3R2-N SH2 domain (Homo sapiens, UniProt O00459); experiment: FP saturation binding assay
Chain of PIK3R2-N SH2 domain (O00459 330-425 limits assumed): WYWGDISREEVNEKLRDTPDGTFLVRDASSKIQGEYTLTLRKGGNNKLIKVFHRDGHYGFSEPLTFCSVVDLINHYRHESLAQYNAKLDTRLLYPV

T1 sequence (P07947 158-255 limits assumed): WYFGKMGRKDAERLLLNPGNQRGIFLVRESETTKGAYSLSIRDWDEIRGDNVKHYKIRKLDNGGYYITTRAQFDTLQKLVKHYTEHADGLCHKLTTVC
Chain of PIK3R2-NC tandem SH2 domains (O00459 330-716 limits assumed): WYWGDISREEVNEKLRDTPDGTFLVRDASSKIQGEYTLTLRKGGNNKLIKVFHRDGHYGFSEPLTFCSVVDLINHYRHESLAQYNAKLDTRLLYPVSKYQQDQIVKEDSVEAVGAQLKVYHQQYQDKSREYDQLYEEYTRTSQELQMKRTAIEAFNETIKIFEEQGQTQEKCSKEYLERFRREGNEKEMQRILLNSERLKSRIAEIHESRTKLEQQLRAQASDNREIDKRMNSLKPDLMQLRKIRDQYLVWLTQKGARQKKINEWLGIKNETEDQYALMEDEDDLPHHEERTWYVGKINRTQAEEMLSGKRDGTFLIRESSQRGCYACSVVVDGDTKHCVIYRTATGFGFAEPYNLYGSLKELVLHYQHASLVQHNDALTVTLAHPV
T2 sequence (P27986 333-718 limits assumed): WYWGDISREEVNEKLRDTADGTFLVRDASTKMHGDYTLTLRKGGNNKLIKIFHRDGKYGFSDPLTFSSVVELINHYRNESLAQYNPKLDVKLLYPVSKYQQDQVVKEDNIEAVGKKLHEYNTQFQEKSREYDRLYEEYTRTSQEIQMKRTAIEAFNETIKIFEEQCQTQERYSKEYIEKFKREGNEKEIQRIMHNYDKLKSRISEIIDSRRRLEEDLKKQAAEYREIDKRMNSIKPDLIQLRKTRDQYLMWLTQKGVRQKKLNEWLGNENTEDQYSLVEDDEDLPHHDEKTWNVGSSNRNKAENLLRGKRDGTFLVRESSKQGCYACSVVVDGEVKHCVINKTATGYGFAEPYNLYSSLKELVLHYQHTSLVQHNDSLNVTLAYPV
Chain of GRB7 SH2 domain (Q14451 431-527 limits assumed): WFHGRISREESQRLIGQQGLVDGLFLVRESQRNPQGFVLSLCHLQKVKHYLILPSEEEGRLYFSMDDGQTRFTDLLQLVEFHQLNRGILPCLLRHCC
T11 sequence (P06239 127-224 limits assumed): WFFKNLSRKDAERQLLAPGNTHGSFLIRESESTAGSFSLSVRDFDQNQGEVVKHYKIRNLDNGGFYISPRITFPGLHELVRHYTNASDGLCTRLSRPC
T7 sequence (P27986 333-428 limits assumed): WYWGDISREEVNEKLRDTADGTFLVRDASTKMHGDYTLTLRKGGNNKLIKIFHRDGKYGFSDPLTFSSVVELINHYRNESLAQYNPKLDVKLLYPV
T3 sequence (Q13882 78-170 limits assumed): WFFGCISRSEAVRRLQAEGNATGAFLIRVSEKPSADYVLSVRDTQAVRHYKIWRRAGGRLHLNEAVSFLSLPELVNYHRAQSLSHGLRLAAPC

CC(C)C[C@H](NC(=O)[C@H](Cc1ccc(O)cc1)NC(=O)[C@H](CC(C)C)NC(=O)[C@@H]1CCCN1C(=O)[C@H](CCC(=O)O)NC(=O)[C@H](CC(N)=O)NC(=O)[C@@H](NC(=O)[C@H](Cc1ccc(OP(=O)(O)O)cc1)NC(=O)[C@H](CCC(=O)O)NC(=O)[C@H](CC(=O)O)NC(=O)[C@H](CCC(=O)O)NC(=O)[C@H](C)N)C(C)C)C(=O)N[C@@H](CC(=O)O)C(=O)O [ErbB4 1202 13-mer] (HELM PEPTIDE1{A.E.D.E.[O=C([C@H](Cc1ccc(OP(=O)(O)O)cc1)N[*:1])[*:2]].V.N.E.P.L.Y.L.D}$$$$V2.0)
Kd ([1]; protein YES1, mean of replicate hits): 1610 nM | Kd [2]: 1540 nM | Kd [3]: 1190 nM | Kd [4]: 1860 nM | Kd ([5]; protein PIK3R3-NC, FP, mean of replicate hits): 2860 nM | Kd [6]: 4970 nM | Kd [7]: 2.06 µM | Kd [8]: 1550 nM | Kd [9]: 1350 nM | Kd [10]: 1460 nM

LDEApYVMASVDNd [ErbB1 pY764]
affinity of recruitment of TNS1 [11]: relatively high affinity | affinity of recruitment of TENC1 [12]: relatively high affinity | affinity of recruitment of TNS3 [13]: relatively high affinity

CSCC[C@H](NC(=O)[C@H](CC(C)C)NC(=O)[C@H](C)NC(=O)[C@H](CCCNC(=N)N)NC(=O)[C@H](Cc1ccc(OP(=O)(O)O)cc1)NC(=O)[C@H](Cc1ccccc1)NC(=O)[C@H](CC(N)=O)NC(=O)[C@H](CO)NC(=O)[C@@H](N)CC(=O)O)C(=O)N[C@@H](CC(=O)O)C(=O)N[C@@H](CCC(=O)O)C(=O)N[C@@H](CCC(=O)O)C(=O)N[C@@H](CC(=O)O)C(=O)O [ErbB1 998 13-mer] (HELM PEPTIDE1{D.S.N.F.[O=C([C@H](Cc1ccc(OP(=O)(O)O)cc1)N[*:1])[*:2]].R.A.L.M.D.E.E.D}$$$$V2.0)
Kd ([1]; Protein YES1, FP saturation binding, mean over replicate hits): 7050 nM | Kd [14]: 5790 nM | Kd [15]: 12600 nM | Kd [16]: 13100 nM | Kd [10]: 2850 nM | Kd [17]: 3980 nM

CSCC[C@H](NC(=O)[C@@H](NC(=O)[C@H](Cc1ccc(OP(=O)(O)O)cc1)NC(=O)[C@H](C)NC(=O)[C@H](CCC(=O)O)NC(=O)[C@H](CC(=O)O)NC(=O)[C@@H](N)CC(C)C)C(C)C)C(=O)N[C@@H](C)C(=O)N[C@@H](CO)C(=O)N[C@H](C(=O)N[C@@H](CC(=O)O)C(=O)N[C@@H](CC(N)=O)C(=O)N[C@@H](CC(=O)O)C(=O)O)C(C)C [ErbB1 764 13-mer] (HELM PEPTIDE1{L.D.E.A.[O=C([C@H](Cc1ccc(OP(=O)(O)O)cc1)N[*:1])[*:2]].V.M.A.S.V.D.N.D}$$$$V2.0)
Kd ([5]; Protein PIK3R3-NC, FP saturation binding, mean over replicate hits): 1910 nM | Kd [6]: 3070 nM | Kd [18]: 2360 nM | Kd [10]: 9700 nM
